Results reported in ChEMBL document CHEMBL1201862, “PubChem BioAssay data set” (2004).
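96-well plates; 48 h exposure; 5 concentrations. Endpoints by linear interpolation between flanking doses. Not reached: highest tested concentration assigned. GI50 marks 50% less growth.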 Calls of active or inactive are those of the source. Cut-off read from the data, not from the text of the source: active = GI50 up to about 1.1 µM and inactive = higher.

Key:
Test in all cases: DTP human tumour cell line panel, 48 h
SN12C = tested on: SN12C
RXF 393 = tested on: RXF 393
786-0 = tested on: 786-0
MDA-N = tested on: MDA-N
SK-OV-3 = tested on: SK-OV-3
LOX IMVI = tested on: LOX IMVI
UACC-257 = tested on: UACC-257
MOLT-4 = tested on: MOLT-4
KM12 = tested on: KM12
EKVX = tested on: EKVX
TK-10 = tested on: TK-10
COLO 205 = tested on: COLO 205
SF-295 = tested on: SF-295
NCI-H522 = tested on: NCI-H522
Malme-3M = tested on: Malme-3M
UO-31 = tested on: UO-31
OVCAR-3 = tested on: OVCAR-3
MCF7 = tested on: MCF7
Hs-578T = tested on: Hs-578T
KM-20L2 = tested on: KM-20L2

Measured: GI50

Nc1ccc(C(=O)N/C(=C\c2cccc([N+](=O)[O-])c2)c2nc3c(O)nc(S)nc3[nH]2)cc1
inactive: SN12C > 88.7 µM | RXF 393 27.4 µM | 786-0 24.5 µM | MDA-N > 100 µM | SK-OV-3 22.8 µM | LOX IMVI > 92.7 µM | UACC-257 > 100 µM | MOLT-4 > 56.2 µM | KM12 > 100 µM | EKVX > 84.9 µM | TK-10 > 79.4 µM | COLO 205 > 100 µM | SF-295 37.3 µM | NCI-H522 > 100 µM | Malme-3M > 100 µM | UO-31 30.3 µM | OVCAR-3 > 100 µM | MCF7 > 93.8 µM | Hs-578T 29.9 µM | KM-20L2 > 100 µM

CC1=C2C(=CO[C@H](C)[C@H]2C)C(O)=C(C(=O)O)C1=O [CITRININ]
inactive: SN12C 21.7 µM | RXF 393 13.2 µM | 786-0 24.5 µM | MDA-N 26.2 µM | SK-OV-3 71.8 µM | LOX IMVI 16.3 µM | UACC-257 29.7 µM | MOLT-4 13.1 µM | KM12 26.9 µM | EKVX 18.7 µM | TK-10 24.5 µM | COLO 205 33.9 µM | SF-295 35.8 µM | NCI-H522 12.4 µM | Malme-3M 50.1 µM | UO-31 48.3 µM | OVCAR-3 16.7 µM | MCF7 15.7 µM | Hs-578T 27.5 µM | KM-20L2 23.8 µM

COc1cc2ccc(=O)oc2cc1O [SCOPOLETIN]
inactive: SN12C 51.4 µM | RXF 393 128 µM | 786-0 > 100 µM | MDA-N > 100 µM | SK-OV-3 94.2 µM | LOX IMVI 61.9 µM | UACC-257 71.9 µM | MOLT-4 28.8 µM | KM12 36.1 µM | EKVX 57.5 µM | TK-10 > 100 µM | COLO 205 142 µM | SF-295 19.7 µM | NCI-H522 67.8 µM | Malme-3M 156 µM | UO-31 38 µM | OVCAR-3 69.8 µM | MCF7 118 µM | Hs-578T > 100 µM | KM-20L2 187 µM
